This note sets out measurements from US11627753B2, “Solubilized steviol glycoside compositions” (JAMES AND CAROL MAY FAMILY, LLLP, priority 2014, dated 2023).

The nature of this data set: Precipitation from aqueous solution in the absence of the emulsifier. Type of data set: physicochemical. Conditions: without natural emulsifier. The text has this: In accordance with various exemplary embodiments of the present technology, the sweetener composition may comprise a natural emulsifier. The natural emulsifier may function to disperse the stevia glycosides through an aqueous solution such as water. The dissolved concentration of the stevia glycosides in the aqueous solution may be higher in the presence of the natural emulsifier than in the absence of the natural emulsifier. For example, rebaudioside A present in amounts of 11% by weight or greater may precipitate from an aqueous solution. In various embodiments of the present technology, the natural emulsifier may allow rebaudioside A to be present in aqueous solution in amounts of up to about 20% by weight without precipitation. In some embodiments, adding the natural emulsifier to an aqueous (ie., water-based) solution of stevia glycosides may stabilize the solubility of the sweetener composition including reducing or eliminating the precipitation of solids from the solution by binding any of the components to prevent separation of the finished sweetener composition.
In various embodiments, the solubility of the aqueous sweetener composition may remain stable for more than five days at room temperature. In some embodiments, the solubility of the aqueous sweetener composition may remain a stable for at least six months at room temperature. […]

Turning to `C=C1C[C@@]23CC[C@H]4[C@@](C)(CCC[C@@]4(C)C(=O)O[C@@H]4O[C@H](CO)[C@@H](O)[C@H](O)[C@H]4O)[C@@H]2CC[C@]1(O[C@@H]1O[C@H](CO)[C@@H](O)[C@H](O[C@@H]2O[C@H](CO)[C@@H](O)[C@H](O)[C@H]2O)[C@H]1O[C@@H]1O[C@H](CO)[C@@H](O)[C@H](O)[C@H]1O)C3` [rebaudioside A], the “amount at which it may precipitate from an aqueous solution” value is recorded as at least 11 % by weight.
